Reference: ChEMBL document CHEMBL3885861, “Open TG-GATES”

Species on record: Rattus norvegicus
Assay: Open TG-GATES - Regimen: Single
Assay type: toxicity, organism-based, Sprague-Dawley
Set-up: regimen Single, gender Male, age 6 weeks
Conditions: in vivo, po, route gavage; for gamma-GTP / ALP / ALT / AST / CRE / DBIL / IP / K / LDH / Na / RALB / TBIL / TC / TG / TP: tissue Plasma; for Bas / Eos / Fbg / Hb / Lym / MCH / MCHC / MCV / Mono / Neu / PT / RBC / Ret / APTT / WBC: tissue Blood; for KIDNEY_L / KIDNEY_R / KIDNEY_TOTAL: tissue Kidney

Cc1cnc(NC(=O)C2=C(O)c3ccccc3S(=O)(=O)N2C)s1 [MELOXICAM]
gamma-GTP (0 mg/kg, 24 h, dose level Control): 1 IU/L
TERMINAL_BW (10 mg/kg, 3 h, dose level Low): 224.9 g
Bas (10 mg/kg, 3 h, dose level Low): 0.6%
Eos (10 mg/kg, 3 h, dose level Low): 1%
Fbg (10 mg/kg, 3 h, dose level Low): 239 mg/dL
Hb (10 mg/kg, 3 h, dose level Low): 13.3 g/dL
Lym (10 mg/kg, 3 h, dose level Low): 78%
MCH (10 mg/kg, 3 h, dose level Low): 20.8 pg
MCHC (10 mg/kg, 3 h, dose level Low): 33.6%
MCV (10 mg/kg, 3 h, dose level Low): 62 fL
Mono (10 mg/kg, 3 h, dose level Low): 2%
Neu (10 mg/kg, 3 h, dose level Low): 18.2%
PT (10 mg/kg, 3 h, dose level Low): 12.2 s
RBC (10 mg/kg, 3 h, dose level Low): 638.8 x10_4/ul
Ret (10 mg/kg, 3 h, dose level Low): 7.2%
KIDNEY_L (10 mg/kg, 3 h, dose level Low): 1 g
KIDNEY_R (10 mg/kg, 3 h, dose level Low): 1 g
KIDNEY_TOTAL (10 mg/kg, 3 h, dose level Low): 2 g
ALP (10 mg/kg, 3 h, dose level Low): 867.6 IU/L
ALT (10 mg/kg, 3 h, dose level Low): 31.8 IU/L
AST (10 mg/kg, 3 h, dose level Low): 65.8 IU/L
CRE (10 mg/kg, 3 h, dose level Low): 0.3 mg/dL
DBIL (10 mg/kg, 3 h, dose level Low): 0.06 mg/dL
IP (10 mg/kg, 3 h, dose level Low): 9 mg/dL
K (10 mg/kg, 3 h, dose level Low): 4 meq/L
LDH (10 mg/kg, 3 h, dose level Low): 138 IU/L
Na (10 mg/kg, 3 h, dose level Low): 141 meq/L
RALB (10 mg/kg, 3 h, dose level Low): 3.3 g/dL
TBIL (10 mg/kg, 3 h, dose level Low): 0.1 mg/dL
TC (10 mg/kg, 3 h, dose level Low): 73.6 mg/dL
TG (10 mg/kg, 3 h, dose level Low): 62.6 mg/dL
TP (10 mg/kg, 3 h, dose level Low): 5.5 g/dL
gamma-GTP (10 mg/kg, 3 h, dose level Low): 0.8 IU/L
TERMINAL_BW (10 mg/kg, 6 h, dose level Low): 223 g
APTT (10 mg/kg, 6 h, dose level Low): 17.8 s
Bas (10 mg/kg, 6 h, dose level Low): 0.6%
Eos (10 mg/kg, 6 h, dose level Low): 0.6%
Fbg (10 mg/kg, 6 h, dose level Low): 211.6 mg/dL
Hb (10 mg/kg, 6 h, dose level Low): 13.5 g/dL
Lym (10 mg/kg, 6 h, dose level Low): 77.4%
MCH (10 mg/kg, 6 h, dose level Low): 20.7 pg
MCHC (10 mg/kg, 6 h, dose level Low): 33.6%
MCV (10 mg/kg, 6 h, dose level Low): 61.8 fL
Mono (10 mg/kg, 6 h, dose level Low): 2.6%
Neu (10 mg/kg, 6 h, dose level Low): 18.6%
RBC (10 mg/kg, 6 h, dose level Low): 648.4 x10_4/ul
Ret (10 mg/kg, 6 h, dose level Low): 6.4%
WBC (10 mg/kg, 6 h, dose level Low): 95.9 x10_2/uL
KIDNEY_L (10 mg/kg, 6 h, dose level Low): 1 g
KIDNEY_R (10 mg/kg, 6 h, dose level Low): 1 g
KIDNEY_TOTAL (10 mg/kg, 6 h, dose level Low): 2.1 g
ALP (10 mg/kg, 6 h, dose level Low): 957 IU/L
ALT (10 mg/kg, 6 h, dose level Low): 37.2 IU/L
AST (10 mg/kg, 6 h, dose level Low): 70.6 IU/L
CRE (10 mg/kg, 6 h, dose level Low): 0.3 mg/dL
DBIL (10 mg/kg, 6 h, dose level Low): 0.062 mg/dL
IP (10 mg/kg, 6 h, dose level Low): 9 mg/dL
K (10 mg/kg, 6 h, dose level Low): 3.9 meq/L
LDH (10 mg/kg, 6 h, dose level Low): 163.8 IU/L
Na (10 mg/kg, 6 h, dose level Low): 141 meq/L
RALB (10 mg/kg, 6 h, dose level Low): 3.2 g/dL
TBIL (10 mg/kg, 6 h, dose level Low): 0.1 mg/dL
TC (10 mg/kg, 6 h, dose level Low): 66.8 mg/dL
TG (10 mg/kg, 6 h, dose level Low): 64.4 mg/dL
TP (10 mg/kg, 6 h, dose level Low): 5.2 g/dL
gamma-GTP (10 mg/kg, 6 h, dose level Low): 1 IU/L
TERMINAL_BW (10 mg/kg, 9 h, dose level Low): 220.5 g
APTT (10 mg/kg, 9 h, dose level Low): 17.8 s
Bas (10 mg/kg, 9 h, dose level Low): 0%
Eos (10 mg/kg, 9 h, dose level Low): 0.8%
Fbg (10 mg/kg, 9 h, dose level Low): 216.6 mg/dL
Hb (10 mg/kg, 9 h, dose level Low): 13.4 g/dL
Lym (10 mg/kg, 9 h, dose level Low): 77.8%
MCH (10 mg/kg, 9 h, dose level Low): 21 pg
MCHC (10 mg/kg, 9 h, dose level Low): 34%
MCV (10 mg/kg, 9 h, dose level Low): 62.1 fL
Mono (10 mg/kg, 9 h, dose level Low): 2.8%
Neu (10 mg/kg, 9 h, dose level Low): 17.8%
RBC (10 mg/kg, 9 h, dose level Low): 637.8 x10_4/ul
Ret (10 mg/kg, 9 h, dose level Low): 6.7%
KIDNEY_L (10 mg/kg, 9 h, dose level Low): 1 g
KIDNEY_R (10 mg/kg, 9 h, dose level Low): 1 g
KIDNEY_TOTAL (10 mg/kg, 9 h, dose level Low): 2.1 g
ALP (10 mg/kg, 9 h, dose level Low): 759.6 IU/L
ALT (10 mg/kg, 9 h, dose level Low): 35 IU/L
AST (10 mg/kg, 9 h, dose level Low): 66 IU/L
CRE (10 mg/kg, 9 h, dose level Low): 0.4 mg/dL
DBIL (10 mg/kg, 9 h, dose level Low): 0.06 mg/dL
IP (10 mg/kg, 9 h, dose level Low): 9.5 mg/dL
K (10 mg/kg, 9 h, dose level Low): 3.9 meq/L
LDH (10 mg/kg, 9 h, dose level Low): 176.6 IU/L
Na (10 mg/kg, 9 h, dose level Low): 141.8 meq/L
RALB (10 mg/kg, 9 h, dose level Low): 3.4 g/dL
TBIL (10 mg/kg, 9 h, dose level Low): 0.1 mg/dL
TC (10 mg/kg, 9 h, dose level Low): 69.4 mg/dL
TG (10 mg/kg, 9 h, dose level Low): 41.6 mg/dL
TP (10 mg/kg, 9 h, dose level Low): 5.3 g/dL
gamma-GTP (10 mg/kg, 9 h, dose level Low): 1 IU/L
TERMINAL_BW (10 mg/kg, 24 h, dose level Low): 237.5 g
Bas (10 mg/kg, 24 h, dose level Low): 0.2%
Eos (10 mg/kg, 24 h, dose level Low): 0.8%
Fbg (10 mg/kg, 24 h, dose level Low): 214 mg/dL
Hb (10 mg/kg, 24 h, dose level Low): 13.1 g/dL
Lym (10 mg/kg, 24 h, dose level Low): 74.4%
MCH (10 mg/kg, 24 h, dose level Low): 21.8 pg
MCHC (10 mg/kg, 24 h, dose level Low): 33.9%
MCV (10 mg/kg, 24 h, dose level Low): 64.2 fL
Mono (10 mg/kg, 24 h, dose level Low): 3.2%
Neu (10 mg/kg, 24 h, dose level Low): 20.8%
PT (10 mg/kg, 24 h, dose level Low): 11.8 s
RBC (10 mg/kg, 24 h, dose level Low): 601.4 x10_4/ul
Ret (10 mg/kg, 24 h, dose level Low): 7%
WBC (10 mg/kg, 24 h, dose level Low): 133.5 x10_2/uL
KIDNEY_L (10 mg/kg, 24 h, dose level Low): 1.1 g
KIDNEY_R (10 mg/kg, 24 h, dose level Low): 1.1 g
KIDNEY_TOTAL (10 mg/kg, 24 h, dose level Low): 2.2 g
ALP (10 mg/kg, 24 h, dose level Low): 959.4 IU/L
ALT (10 mg/kg, 24 h, dose level Low): 36.8 IU/L
AST (10 mg/kg, 24 h, dose level Low): 70 IU/L
CRE (10 mg/kg, 24 h, dose level Low): 0.4 mg/dL
DBIL (10 mg/kg, 24 h, dose level Low): 0.082 mg/dL
IP (10 mg/kg, 24 h, dose level Low): 7.9 mg/dL
K (10 mg/kg, 24 h, dose level Low): 4.2 meq/L
LDH (10 mg/kg, 24 h, dose level Low): 177.8 IU/L
Na (10 mg/kg, 24 h, dose level Low): 141 meq/L
RALB (10 mg/kg, 24 h, dose level Low): 3.2 g/dL
TBIL (10 mg/kg, 24 h, dose level Low): 0.1 mg/dL
TC (10 mg/kg, 24 h, dose level Low): 72 mg/dL
TG (10 mg/kg, 24 h, dose level Low): 84.4 mg/dL
